Results as given in patent US10000471B2, “Pyrazole P38 map kinase inhibitors” (Respivert Limited, priority 2010, dated 2018).

What was measured:
[1] = target: T1, p38 MAPKγ (MAPK12) (Homo sapiens, UniProt P53778); experiment: Enzyme inhibition assay (FRET, Z-LYTE), p38 MAPKγ; format: biochemical; settings: read-out: Enzyme Inhibition IC50 p38γ
T1 construct: purchased Invitrogen
T1 sequence (P53778 1-367): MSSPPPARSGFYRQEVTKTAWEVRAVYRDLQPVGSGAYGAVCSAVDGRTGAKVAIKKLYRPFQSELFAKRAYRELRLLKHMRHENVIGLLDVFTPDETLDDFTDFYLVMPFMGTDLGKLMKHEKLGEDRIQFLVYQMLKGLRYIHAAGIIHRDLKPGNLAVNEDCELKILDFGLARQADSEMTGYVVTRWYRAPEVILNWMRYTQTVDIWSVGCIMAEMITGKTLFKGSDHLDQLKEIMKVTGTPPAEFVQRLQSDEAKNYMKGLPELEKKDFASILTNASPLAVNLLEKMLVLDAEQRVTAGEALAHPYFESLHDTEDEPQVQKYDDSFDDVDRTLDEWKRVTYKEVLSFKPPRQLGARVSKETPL
In short: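 Z-LYTE FRET readout: after 1 h kinase reaction (ATP 100 μM, peptide 2 μM) following 2 h RT enzyme–compound preincubation in HEPES, protease cleaves only unphosphorylated peptide. Percent inhibition from donor/acceptor ratio relative to control; IC50 fitted from the curve.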

[2] = test system: TNFα release in d-U937 cells; experiment: LPS-induced TNFα release in d-U937 cells; format: cell-based, human; settings: Homo sapiens, dU937, relative to 10 μg/mL BIRB796, read-out: LPS/TNFα REC50 d-U937
In short: (§1)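 Sandwich ELISA of TNFα and IL-8 in supernatants after 4 hr 0.1 μg/mL LPS (E. coli O111:B4) challenge of U937 cells differentiated with PMA 100 ng/ml for 48–72 hr, compound added 2 hr beforehand. IL-8: IC50 from inhibition versus vehicle; TNFα: REC50 from inhibition as percentage of 10 μg/mL BIRB796 effect.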

[3] = test system: IL-8 release in d-U937 cells; experiment: LPS-induced IL-8 release in d-U937 cells; format: cell-based, human; settings: Homo sapiens, dU937
In short: as §1

[4] = test system: TNFα release in THP-1 cells; experiment: LPS-induced TNFα release in THP-1 cells; format: cell-based, human; settings: Homo sapiens
In short: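 IC50 derived from concentration-response of TNFα inhibition relative to vehicle, with TNFα quantified by sandwich ELISA in supernatants. THP-1 cells were challenged 4 hr with LPS (E. coli, 3 μg/mL).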

[5] = test system: ICAM-1 induction in BEAS2B cells; experiment: Poly I:C-induced ICAM-1 induction in BEAS2B cells; format: cell-based, human; settings: Homo sapiens, BEAS-2B, read-out: PolyIC/ICAM1 IC50 BEAS2B
In short: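 IC50 reflects inhibition of cell-surface ICAM-1 relative to vehicle, read by ELISA (OD450 against 655 nm) and divided by crystal violet OD595 for cell number. Readings were taken 18 hr after transfection of 1 μg/mL poly I:C into BEAS2B cells. Compound was added 2 hr before stimulation.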

[6] = test system: Differentiated U937 cells; experiment: Cell viability MTT assay; format: cell-based, human; settings: negative = apparent increase in viability; for MTT Assay (Viability) 4 h d-U937, percentage loss of cell viability: 4 hr in 5% FCS; for MTT Assay (Viability) 24 h d-U937, percentage loss of cell viability: 24 h in 10% FCS
In short: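 Differentiated U937 cells pre-incubated with compound either 4 hr in 5% FCS or 24 h in 10% FCS, then 1 hr MTT. Formazan dissolved in DMSO, absorbance at 550 nm. Percentage viability loss relative to 0.5% DMSO vehicle; apparent increases appear as negative percentages.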

[7] = target: T2, p38 MAPKα isoform (MAPK14) (Homo sapiens, UniProt Q16539); experiment: Enzyme inhibition assay (FRET, Z-LYTE), p38 MAPKα via MAPKAP-K2 activation; format: biochemical; settings: read-out: Enzyme Inhibition IC50 p38α
T2 construct: purchased Invitrogen
T2 sequence (Q16539 whole entry, canonical isoform): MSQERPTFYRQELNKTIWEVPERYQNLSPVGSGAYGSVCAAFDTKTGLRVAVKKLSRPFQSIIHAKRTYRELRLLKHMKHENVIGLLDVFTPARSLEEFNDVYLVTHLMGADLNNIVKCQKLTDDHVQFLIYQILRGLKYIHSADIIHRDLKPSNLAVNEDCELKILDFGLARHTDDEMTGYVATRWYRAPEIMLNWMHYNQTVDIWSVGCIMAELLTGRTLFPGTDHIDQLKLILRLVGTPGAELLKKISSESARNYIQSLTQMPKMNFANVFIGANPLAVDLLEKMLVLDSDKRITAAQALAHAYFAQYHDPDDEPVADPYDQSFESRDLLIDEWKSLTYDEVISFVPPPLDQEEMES
In short: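 Z-LYTE FRET format, in which protease cleaves only non-phosphorylated peptide, read after 1 h development. Compound was mixed with p38 MAPKα for 2 h at RT, and inhibition was gauged from MAPKAP-K2 activation/phosphorylation rather than directly. Percent inhibition against an uninhibited control was fitted to give IC50.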

SMILES | IC50 [1] [nM] | EC50 [2] [nM] | IC50 [3] [nM] | IC50 [4] [nM] | IC50 [5] [nM] | MTT Assay (Viability) 4 h d-U937, percentage loss of cell viability [6] [%] | MTT Assay (Viability) 24 h d-U937, percentage loss of cell viability [6] [%] | IC50 [7] [nM]
COCC(=O)Nc1cc(Oc2ccc(NC(=O)Nc3cc(C(C)(C)C)nn3-c3ccc(C)cc3)cc2C#N)ccn1 [Example 28, N-(4-(4-(3-(3-tert-butyl-1-p-tolyl-1H-pyrazol-5-yl)ureido)-2-cyanophenoxy)pyridin-2-yl)-2-methoxyacetamide] | 30.1 | 2.7 | 7 | 3.2 | 11.6 | −3.8 | 71.0 | 48.3
COCC(=O)Nc1cc(Oc2ccc(NC(=O)Nc3cc(C(C)(C)C)nn3-c3ccc(C)cc3)cc2Br)ccn1 [Example 33, N-(4-(2-bromo-4-(3-(3-tert-butyl-1-p-tolyl-1H-pyrazol-5-yl)ureido)phenoxy)pyridin-2-yl)-2-methoxyacetamide] | 59.7 | 6.4 | 4.8 | 1.5 | 3 | −12.6 | 68.9 | 25.3
CNC(=O)Nc1cc(COc2ccc(NC(=O)Nc3cc(C(C)(C)C)nn3-c3ccc(C)cc3)c(Cl)c2Cl)ccn1 [Example 102, 1-(4-((4-(3-(3-tert-butyl-1-p-tolyl-1H-pyrazol-5-yl)ureido)-2,3-dichlorophenoxy)methyl)pyridin-2-yl)-3-methylurea] | 140 | 4.7 | 4.8 | 3.5 | 25.4 | −14.1 | 8.8 | 44.1
CCNC(=O)Nc1cc(Oc2ccc(NC(=O)Nc3cc(C(C)(C)C)nn3-c3ccc(OC)cc3)c(Cl)c2Cl)ccn1 [Example 12, 1-(4-(4-(3-(3-tert-Butyl-1-(4-methoxyphenyl)-1H-pyrazol-5-yl)ureido)-2,3-dichlorophenoxy)pyridin-2-yl)-3-ethylurea] | 57.2 | 1.7 | 0.2 | 1.6 | 2.7 | 5.0 | 24.1 | 24.7
COCC(=O)Nc1cc(Oc2ccc(NC(=O)Nc3cc(C(C)(C)C)nn3-c3ccc(C)cc3)c3[nH]ncc23)ccn1 [Example 7, N-(4-(7-(3-(3-tert-Butyl-1-p-tolyl-1H-pyrazol-5-yl)ureido)-1H-indazol-4-yloxy)pyridin-2-yl)-2-methoxyacetamide] | 36.6 | 112 | 124 | 111 | 150 | −2.0 | 64.5 | 1.3
CNC(=O)Nc1nccc(Oc2ccc(NC(=O)Nc3cc(C(C)(C)C)nn3-c3ccc(CO)cc3)c(Cl)c2Cl)n1 [Example 25, 1-(4-(4-(3-(3-tert-Butyl-1-(4-(hydroxymethyl)phenyl)-1H-pyrazol-5-yl)ureido)-2,3-dichlorophenoxy)pyrimidin-2-yl)-3-methylurea] | 139 | 1.2 | 2.5 | 1.7 | 10.8 | −3.5 | 58.6 | 10.7
COCC(=O)Nc1nccc(Oc2ccc(NC(=O)Nc3cc(C(C)(C)C)nn3-c3ccc(CO)cc3)c(Cl)c2Cl)n1 [Example 94, N-(4-(4-(3-(3-tert-butyl-1-(4-hydroxymethylphenyl)-1H-pyrazol-5-yl)ureido)-2,3-dichlorophenoxy)pyrimidin-2-yl)-2-methoxyacetamide] | 123 | 0.6 | 21.6 | 1 | 8.9 | 2.3 | 76.6 | 17
